Data as given in patent publication US20100267561A1, “HERBICIDAL PYRIDAZINONE DERIVATIVES” (priority 2007, published 2010).

How the values were obtained:
Assay type in all cases: in vivo
rice (Oryza sativa) = experiment: Test B flooded paddy test plant response
Summary of the method: (§1)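 2-leaf plants; pots flooded 3 cm above soil; compound added to paddy water; depth maintained. Greenhouse 13–15 d. Visual rating vs controls, 0 (no effect) to 100 (complete control); dash = no result.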

[1] = system: ducksalad (Heteranthera limosa); experiment: Test B flooded paddy test plant response
Summary of the method: as §1

[2] = system: umbrella sedge (Cyperus difformis); experiment: Test B flooded paddy test plant response
Summary of the method: as §1

[3] = system: barnyardgrass (Echinochloa crus-galli); experiment: Test B flooded paddy test plant response
Summary of the method: as §1

[4] = system: winter barley (Hordeum vulgare); experiment: Test B postemergence plant response; conditions: for Barley plant response rating: 8 g ai/ha, postemergence, 0-100 scale; for Plant response rating, Barley: Postemergence, scale 0 to 100, 0 no effect, 100 complete control
Summary of the method: (§2)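 Postemergence spray on 1- to 4-leaf plants (2–18 cm); greenhouse 13–15 d; visual rating vs controls, 0 = no effect, 100 = complete control; dash = not tested.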

[5] = system: chickweed (Stellaria media); experiment: Test B postemergence plant response; conditions: for Chickweed plant response rating: 8 g ai/ha, postemergence, 0-100 scale; for Plant response rating, Chickweed: Postemergence
Summary of the method: as §2

[6] = system: windgrass (Apera spica-venti); experiment: Test B postemergence plant response; conditions: for Windgrass plant response rating: postemergence, 0-100 scale; for Plant response rating, Windgrass: Postemergence
Summary of the method: as §2

[7] = system: canarygrass (Phalaris minor); experiment: Test B postemergence plant response; conditions: for Canarygrass plant response rating: 8 g ai/ha, postemergence, 0-100 scale; for Plant response rating, Canarygrass: Postemergence
Summary of the method: as §2

corn (Zea mays) = experiment: Test A pre-/postemergence plant response
Summary of the method: (§3)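 Ratings are visual, 0–100, where 100 means complete control and 0 no effect, taken roughly 10 days after treatment by comparison with untreated controls. Formulation: non-phytotoxic solvent mixture with surfactant.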

[8] = system: giant foxtail (Setaria faberi); experiment: Test A pre-/postemergence plant response
Summary of the method: as §3

[9] = system: pigweed (Amaranthus retroflexus); experiment: Test A pre-/postemergence plant response
Summary of the method: as §3

[10] = system: barnyardgrass (Echinochloa crus-galli); experiment: Test A pre-/postemergence plant response
Summary of the method: as §3

[11] = system: large crabgrass (Digitaria sanguinalis); experiment: Test A pre-/postemergence plant response
Summary of the method: as §3

[12] = Flood (flooded paddy test), 62 g ai/ha, scale 0 to 100, 0 no effect, 100 complete control
[13] = Flood (flooded paddy test), 125 g ai/ha, scale 0 to 100, 0 no effect, 100 complete control
[14] = Flood (flooded paddy test), 250 g ai/ha, scale 0 to 100, 0 no effect, 100 complete control
[15] = Flood, 31 g ai/ha, scale 0 to 100
[16] = 62 g ai/ha, scale 0 to 100, 0 no effect, 100 complete control
[17] = Postemergence, 31 g ai/ha, 0 to 100 scale (0 no effect, 100 complete control)
[18] = Postemergence, 125 g ai/ha, 0 to 100 scale, 0 no effect, 100 complete control
[19] = Preemergence, 31 g ai/ha, 0 to 100 scale, 0 is no effect, 100 is complete control
[20] = Preemergence, 125 g ai/ha, 0 to 100 scale (0 no effect, 100 complete control)

COCc1cc(-c2ccc(Br)cc2)nn1-c1c(O)cnn(C)c1=O [Compound 68]
Plant response rating, Rice (rice (Oryza sativa); [12]): 0
Plant response rating, Rice (rice (Oryza sativa); [13]): 0
Plant response rating, Rice (rice (Oryza sativa); [14]): 0
Plant response rating, Rice (rice (Oryza sativa); [15]): 0
Plant response rating, Ducksalad [1, 12]: 0
Plant response rating, Ducksalad [1, 13]: 0
Plant response rating, Ducksalad [1, 14]: 0
Plant response rating, Ducksalad [1, 15]: 0
Plant response rating, Sedge, Umbrella [2, 12]: 0
Plant response rating, Sedge, Umbrella [2, 13]: 0
Plant response rating, Sedge, Umbrella [2, 14]: 0
Plant response rating, Sedge, Umbrella [2, 15]: 0
Plant response rating, Barnyardgrass [3, 12]: 0
Plant response rating, Barnyardgrass [3, 13]: 0
Plant response rating, Barnyardgrass [3, 14]: 0
Plant response rating, Barnyardgrass [3, 15]: 0
Barley plant response rating [4]: 0
Plant response rating, Barley ([4]; 16 g ai/ha): 0
Plant response rating, Barley ([4]; 31 g ai/ha): 0
Plant response rating, Barley ([4]; 62 g ai/ha): 0
Chickweed plant response rating [5]: 0
Plant response rating, Chickweed ([5]; 16 g ai/ha, scale 0 to 100): 0
Plant response rating, Chickweed ([5]; 31 g ai/ha, scale 0 to 100): 0
Plant response rating, Chickweed [5, 16]: 0
Windgrass plant response rating ([6]; 8 g ai/ha): 0
Windgrass plant response rating ([6]; 16 g ai/ha): 0
Plant response rating, Windgrass ([6]; 31 g ai/ha, scale 0 to 100): 0
Plant response rating, Windgrass [6, 16]: 35
Canarygrass plant response rating [7]: 0
Plant response rating, Canarygrass ([7]; 16 g ai/ha, scale 0 to 100): 0
Plant response rating, Canarygrass ([7]; 31 g ai/ha, scale 0 to 100): 0
Plant response rating, Canarygrass [7, 16]: 10
Plant response rating, Corn (corn (Zea mays); [17]): 0
Plant response rating, Corn (corn (Zea mays); [18]): 50
Plant response rating, Corn (corn (Zea mays); [19]): 0
Plant response rating, Corn (corn (Zea mays); [20]): 0
Plant response rating, Foxtail, Giant [8, 17]: 50
Plant response rating, Foxtail, Giant [8, 18]: 90
Plant response rating, Foxtail, Giant [8, 19]: 10
Plant response rating, Foxtail, Giant [8, 20]: 100
Plant response rating, Pigweed [9, 17]: 0
Plant response rating, Pigweed [9, 18]: 0
Plant response rating, Pigweed [9, 19]: 0
Plant response rating, Pigweed [9, 20]: 0
Plant response rating, Barnyardgrass [10, 17]: 10
Plant response rating, Barnyardgrass [10, 18]: 100
Plant response rating, Barnyardgrass [10, 19]: 0
Plant response rating, Barnyardgrass [10, 20]: 90
Plant response rating, Crabgrass, Large [11, 17]: 10
Plant response rating, Crabgrass, Large [11, 18]: 10
Plant response rating, Crabgrass, Large [11, 19]: 0
Plant response rating, Crabgrass, Large [11, 20]: 10

Cc1nn(C)c(=O)c(-n2nc(-c3ccc(Br)cc3)cc2C)c1O [Compound 81]
Plant response rating, Rice (rice (Oryza sativa); [12]): 0
Plant response rating, Rice (rice (Oryza sativa); [13]): 0
Plant response rating, Rice (rice (Oryza sativa); [14]): 0
Plant response rating, Rice (rice (Oryza sativa); [15]): 0
Plant response rating, Ducksalad [1, 12]: 0
Plant response rating, Ducksalad [1, 13]: 0
Plant response rating, Ducksalad [1, 14]: 0
Plant response rating, Ducksalad [1, 15]: 0
Plant response rating, Sedge, Umbrella [2, 12]: 0
Plant response rating, Sedge, Umbrella [2, 13]: 0
Plant response rating, Sedge, Umbrella [2, 14]: 0
Plant response rating, Sedge, Umbrella [2, 15]: 0
Plant response rating, Barnyardgrass [3, 12]: 0
Plant response rating, Barnyardgrass [3, 13]: 0
Plant response rating, Barnyardgrass [3, 14]: 0
Plant response rating, Barnyardgrass [3, 15]: 0
Barley plant response rating [4]: 10
Plant response rating, Barley ([4]; 16 g ai/ha): 15
Plant response rating, Barley ([4]; 31 g ai/ha): 70
Plant response rating, Barley ([4]; 62 g ai/ha): 98
Chickweed plant response rating [5]: 0
Plant response rating, Chickweed ([5]; 16 g ai/ha, scale 0 to 100): 0
Plant response rating, Chickweed ([5]; 31 g ai/ha, scale 0 to 100): 0
Plant response rating, Chickweed [5, 16]: 0
Windgrass plant response rating ([6]; 8 g ai/ha): 45
Windgrass plant response rating ([6]; 16 g ai/ha): 80
Plant response rating, Windgrass ([6]; 31 g ai/ha, scale 0 to 100): 85
Plant response rating, Windgrass [6, 16]: 95
Canarygrass plant response rating [7]: 65
Plant response rating, Canarygrass ([7]; 31 g ai/ha, scale 0 to 100): 98
Plant response rating, Canarygrass [7, 16]: 100
Plant response rating, Corn (corn (Zea mays); [17]): 30
Plant response rating, Corn (corn (Zea mays); [18]): 100
Plant response rating, Corn (corn (Zea mays); [19]): 30
Plant response rating, Corn (corn (Zea mays); [20]): 50
Plant response rating, Foxtail, Giant [8, 17]: 80
Plant response rating, Foxtail, Giant [8, 18]: 100
Plant response rating, Foxtail, Giant [8, 19]: 80
Plant response rating, Foxtail, Giant [8, 20]: 100
Plant response rating, Pigweed [9, 17]: 0
Plant response rating, Pigweed [9, 18]: 0
Plant response rating, Pigweed [9, 19]: 0
Plant response rating, Pigweed [9, 20]: 0
Plant response rating, Barnyardgrass [10, 17]: 90
Plant response rating, Barnyardgrass [10, 18]: 100
Plant response rating, Barnyardgrass [10, 19]: 70
Plant response rating, Barnyardgrass [10, 20]: 100
Plant response rating, Crabgrass, Large [11, 17]: 90
Plant response rating, Crabgrass, Large [11, 18]: 100
Plant response rating, Crabgrass, Large [11, 19]: 70
Plant response rating, Crabgrass, Large [11, 20]: 100

Cc1cc(-c2ccc(Cl)cc2)nn1-c1c(OC(=S)N(C)C)cnn(C)c1=O [Compound 69]
Plant response rating, Rice (rice (Oryza sativa); [12]): 0
Plant response rating, Rice (rice (Oryza sativa); [13]): 0
Plant response rating, Rice (rice (Oryza sativa); [14]): 0
Plant response rating, Rice (rice (Oryza sativa); [15]): 0
Plant response rating, Ducksalad [1, 12]: 0
Plant response rating, Ducksalad [1, 13]: 0
Plant response rating, Ducksalad [1, 14]: 0
Plant response rating, Ducksalad [1, 15]: 0
Plant response rating, Sedge, Umbrella [2, 12]: 0
Plant response rating, Sedge, Umbrella [2, 13]: 0
Plant response rating, Sedge, Umbrella [2, 14]: 0
Plant response rating, Sedge, Umbrella [2, 15]: 0
Plant response rating, Barnyardgrass [3, 12]: 0
Plant response rating, Barnyardgrass [3, 13]: 0
Plant response rating, Barnyardgrass [3, 14]: 0
Plant response rating, Barnyardgrass [3, 15]: 0
Barley plant response rating [4]: 0
Plant response rating, Barley ([4]; 16 g ai/ha): 0
Plant response rating, Barley ([4]; 31 g ai/ha): 0
Plant response rating, Barley ([4]; 62 g ai/ha): 0
Chickweed plant response rating [5]: 0
Plant response rating, Chickweed ([5]; 16 g ai/ha, scale 0 to 100): 0
Plant response rating, Chickweed ([5]; 31 g ai/ha, scale 0 to 100): 0
Plant response rating, Chickweed [5, 16]: 0
Windgrass plant response rating ([6]; 8 g ai/ha): 0
Windgrass plant response rating ([6]; 16 g ai/ha): 0
Plant response rating, Windgrass ([6]; 31 g ai/ha, scale 0 to 100): 10
Plant response rating, Windgrass [6, 16]: 40
Canarygrass plant response rating [7]: 0
Plant response rating, Canarygrass ([7]; 16 g ai/ha, scale 0 to 100): 0
Plant response rating, Canarygrass ([7]; 31 g ai/ha, scale 0 to 100): 0
Plant response rating, Canarygrass [7, 16]: 0
Plant response rating, Corn (corn (Zea mays); [17]): 60
Plant response rating, Corn (corn (Zea mays); [18]): 90
Plant response rating, Corn (corn (Zea mays); [19]): 20
Plant response rating, Corn (corn (Zea mays); [20]): 30
Plant response rating, Foxtail, Giant [8, 17]: 90
Plant response rating, Foxtail, Giant [8, 18]: 100
Plant response rating, Foxtail, Giant [8, 19]: 20
Plant response rating, Foxtail, Giant [8, 20]: 90
Plant response rating, Pigweed [9, 17]: 0
Plant response rating, Pigweed [9, 18]: 0
Plant response rating, Pigweed [9, 19]: 0
Plant response rating, Pigweed [9, 20]: 0
Plant response rating, Barnyardgrass [10, 17]: 90
Plant response rating, Barnyardgrass [10, 18]: 100
Plant response rating, Barnyardgrass [10, 19]: 20
Plant response rating, Barnyardgrass [10, 20]: 70
Plant response rating, Crabgrass, Large [11, 17]: 40
Plant response rating, Crabgrass, Large [11, 18]: 80
Plant response rating, Crabgrass, Large [11, 19]: 0
Plant response rating, Crabgrass, Large [11, 20]: 90
